Measurements: paper PMC12610274, “Identification of Marrubiin as a Cathepsin C Inhibitor for Treating Rheumatoid Arthritis” (Molecules, 2025)

How the values were obtained:
[1] = Cytotoxicity assay, RAW264.7 cell line; format: cell-based; conditions: mouse, RAW264.7 cells
Method: RAW264.7 cells and U937 cells in the logarithmic growth phase were counted and diluted, and the concentrations of the single-cell suspensions of the two types of cells were adjusted to 5 × 10^4 cells/mL and 3 × 10^4 cells/mL, respectively. After thorough mixing, the cells were seeded into a 96-well plate, with 100 μL of cell suspension added to each well. Prepare the working solution of test compounds using the corresponding medium as the solvent, with the concentration of working solution being 2 times the final test concentration (2.5 μM, 5 μM, 10 μM, 20 μM, and 40 μM). Twenty-four hours after cell seeding, the compound working solutions were added to the compound test wells, and the same volume of medium was added to the negative control wells, followed by continuous incubation for another 24 h. Only the wells with the same volume but without cells served as the blank control group. The CellTiter-Lumi™ luminescent cell viability assay kit (Beyotime Biotechnology, Shanghai, China, C0065XL) was used to detect cell viability according to the standard operating procedures. Each group of tests was independently repeated at least 3 times, and IC50 values were calculated using SPSS 10.0.

CTSS = target: T1, CTSS (Homo sapiens, UniProt P25774); assay: Human recombinant cathepsins isolated enzyme assay, CTSS; format: biochemical; conditions: read-out: CTSS Enz (IC50: μM)
T1 construct: purchased R&D Systems
T1 sequence (P25774 115-331): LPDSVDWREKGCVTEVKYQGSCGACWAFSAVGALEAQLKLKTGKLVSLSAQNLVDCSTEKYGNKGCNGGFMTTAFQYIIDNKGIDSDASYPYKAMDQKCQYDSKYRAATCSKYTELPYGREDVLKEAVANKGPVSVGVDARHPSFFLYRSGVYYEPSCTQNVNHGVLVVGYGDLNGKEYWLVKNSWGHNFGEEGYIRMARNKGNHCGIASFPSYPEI
Source text: (§1) The protocol for evaluating the inhibitory potency of compounds against other cathepsins referred to the CTSC activity assay. Recombinant human CTSB, CTSL, CTSS and CTSK for testing were also purchased from R&D Systems Biotechnology Company. Recombinant human Cat G, NE, and PR3 For testing were purchased from MedChemExpress. A multi-functional microplate reader was used to measure the absorption of Z-Leu-Arg-AMC at excitation/emission wavelengths of 380/460 nm to assess the activity changes of CTSB and CTSL, while the absorption of MCA-Arg-Pro-Lys-Pro-Val-Glu-NVAL-Trp-Arg-Lys(DNP)-NH2 at 320/405 nm was measured to evaluate the activity changes of CTSS and CTSK. Different assay buffers were prepared for diluting samples and measuring the activities of specific NSPs: a buffer containing 50 mM Tris and 750 mM NaCl (pH 7.4) was used for NE and PR3; a buffer containing 50 mM Tris, 750 mM NaCl, 5 mM EDTA (pH 7.4) was used for Cat G; and a buffer containing 25 mM MES, 50 mM NaCl, 5 mM DTT (pH 6.0) was used for CTSC. Synthetic substrates were employed to assess the activities of NSPs and CTSC: H-Gly-Arg-AMC for CTSC, N-MeSuc-Ala-Ala-Pro-Val-pNA for NE, aminobenzoyl-Val-Ala-Asp-Cys-Ala-Asp-Gln-ethylenediamine 2,4-dinitrophenyl for PR3, and N-Suc-Ala-Ala-Pro-Phe-pNA for Cat G. Each group of tests was independently repeated at least 3 times, and IC50 values were calculated using SPSS 10.0.

Dipeptidyl Peptidase 9 = Dipeptidyl Peptidase 9 (Homo sapiens, UniProt Q86TI2); assay: Recombinant dipeptidyl peptidases isolated enzyme assay, DPP9; format: biochemical; conditions: read-out: Dipeptidyl Peptidase 9 Enz (IC50: μM)
Sequence of Dipeptidyl Peptidase 9 (Q86TI2 whole entry, species assumed): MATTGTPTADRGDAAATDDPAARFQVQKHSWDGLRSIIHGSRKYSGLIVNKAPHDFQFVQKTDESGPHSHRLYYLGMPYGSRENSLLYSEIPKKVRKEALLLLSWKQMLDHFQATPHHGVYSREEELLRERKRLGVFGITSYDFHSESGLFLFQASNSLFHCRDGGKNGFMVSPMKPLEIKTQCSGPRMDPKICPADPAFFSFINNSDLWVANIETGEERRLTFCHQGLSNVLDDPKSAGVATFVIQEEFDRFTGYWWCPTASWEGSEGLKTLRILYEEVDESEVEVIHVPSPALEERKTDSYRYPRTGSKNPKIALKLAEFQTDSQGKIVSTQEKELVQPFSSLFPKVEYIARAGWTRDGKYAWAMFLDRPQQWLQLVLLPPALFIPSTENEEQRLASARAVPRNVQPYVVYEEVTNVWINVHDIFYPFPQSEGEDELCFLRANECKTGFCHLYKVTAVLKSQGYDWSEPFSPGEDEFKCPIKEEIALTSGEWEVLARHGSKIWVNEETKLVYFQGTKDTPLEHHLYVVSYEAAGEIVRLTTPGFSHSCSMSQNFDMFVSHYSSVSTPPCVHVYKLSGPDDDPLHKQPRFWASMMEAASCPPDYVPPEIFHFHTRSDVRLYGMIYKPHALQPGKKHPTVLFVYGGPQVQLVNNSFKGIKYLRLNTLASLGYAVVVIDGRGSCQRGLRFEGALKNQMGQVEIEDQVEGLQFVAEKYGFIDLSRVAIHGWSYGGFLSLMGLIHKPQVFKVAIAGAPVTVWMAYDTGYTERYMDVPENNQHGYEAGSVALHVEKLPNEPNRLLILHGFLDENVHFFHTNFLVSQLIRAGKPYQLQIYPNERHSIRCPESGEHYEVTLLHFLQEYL
Source text: Table 3 Inhibitory effects of marrubiin on dipeptidyl peptidase. | column: Dipeptidyl Peptidase 9 Enz (IC50: μM)

NE = target: T2, NE (Homo sapiens, UniProt P08246); assay: Recombinant NSPs isolated enzyme assay, NE; format: biochemical; conditions: read-out: NE Enz (IC50: μM)
T2 construct: purchased MedChemExpress
T2 sequence (P08246 30-267): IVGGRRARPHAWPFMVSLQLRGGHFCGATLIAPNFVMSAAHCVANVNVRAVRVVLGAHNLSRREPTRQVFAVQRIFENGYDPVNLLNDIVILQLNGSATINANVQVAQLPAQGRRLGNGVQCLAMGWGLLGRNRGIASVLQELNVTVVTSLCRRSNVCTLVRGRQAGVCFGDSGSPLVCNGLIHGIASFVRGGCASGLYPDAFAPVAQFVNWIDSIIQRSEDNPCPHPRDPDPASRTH
Source text: as §1

CTSC = target: T3, CTSC (Mus musculus, UniProt P97821); assay: CTSC activity in blood and bone marrow of mice; format: in vivo, C57BL/6 mice; conditions: 30 mg/kg daily gavage, 7 days
T3 construct: from tissue; host or cells: mouse blood and bone marrow lysates
T3 sequence (P97821 25-462): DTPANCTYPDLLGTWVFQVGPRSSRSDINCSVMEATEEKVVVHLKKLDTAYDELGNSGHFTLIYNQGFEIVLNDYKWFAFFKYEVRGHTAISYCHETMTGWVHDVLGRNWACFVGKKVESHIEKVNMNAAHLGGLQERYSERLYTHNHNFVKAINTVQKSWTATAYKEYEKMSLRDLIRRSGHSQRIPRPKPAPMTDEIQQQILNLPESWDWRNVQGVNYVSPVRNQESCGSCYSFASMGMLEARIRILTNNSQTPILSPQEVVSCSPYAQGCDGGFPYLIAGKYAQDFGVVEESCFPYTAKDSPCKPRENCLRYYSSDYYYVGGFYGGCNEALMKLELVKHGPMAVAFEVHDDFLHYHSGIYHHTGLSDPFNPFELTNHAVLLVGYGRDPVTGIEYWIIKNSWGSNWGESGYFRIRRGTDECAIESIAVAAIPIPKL
Method: A total of 25 C57BL/6 mice (6–8 weeks old, weighing approximately 20 g, with equal numbers of males and females) were randomly divided into five groups. Mice in the compound-treated groups were orally administered the compound once daily at doses of 0.3, 3, and 30 mg/kg for 7 consecutive days. […] Mice in the normal group were given an equal volume of normal saline at the same time points. The body weight, death rate, and behavior were observed and recorded daily for one week. After 7 days, bone marrow and blood samples were collected from the mice and lysed using 8% Triton X-100 buffer. The lysates were stored at −20 °C until testing. The activity assays for CTSC and NSPs were performed as described above. The mice were anesthetized and the tissues were taken for H&E staining.

PR3 = assay: AIA model, serum PR3 activity; format: in vivo, Sprague-Dawley rats; conditions: rat AIA, high dose 60 mg/kg gavage, 15 days
Method: Thirty 4-week-old male Sprague-Dawley rats (weighing 120–130 g) were randomly divided into 6 groups (5 rats per group) after 1 week of adaptive feeding, namely the normal group, model group, low-dose experimental group (15 mg/kg), medium-dose experimental group (30 mg/kg), high-dose experimental group (60 mg/kg), and positive control group (30 mg/kg). Starting from Day 0 of the experiment, rats in the administration groups and model group were injected intradermally with 0.1 mL of CFA into the left hind paw to induce AIA, while rats in the normal group were injected intradermally with an equal volume (0.1 mL) of normal saline as a control. After 13 consecutive days of feeding, rats treated with CFA successfully developed typical AIA symptoms. […] During the experiment, the body weight, mental state, activity ability, hair color changes, and paw appearance changes of the rats were observed and recorded daily. In addition, on Day 0 of the experiment (baseline period), the basic paw volume of all rats was accurately measured using a plethysmometer, which served as a reference standard for subsequent evaluation of inflammation severity. From Day 13 to Day 28 of the experiment, the paw volume of the rats was measured repeatedly every 3 days. The degree of paw swelling was quantified by calculating the change in paw volume relative to the baseline. […] The cytokine levels in serum were measured. […]

## C[C@@H]1C[C@H]2OC(=O)[C@@]3(C)CCC[C@@](C)([C@@H]23)[C@@]1(O)CCc1ccoc1 [Marrubiin, marrubiin]
[1]
  IC50 at 24 h: > 10 µM
CTSS
  IC50: > 5 µM
Dipeptidyl Peptidase 9
  IC50: > 10 µM
NE
  IC50: > 10 µM
CTSC; blood
  remaining activity rate of CTSC: ~25.5%
CTSC; bone marrow
  remaining activity rate of CTSC: approximately 15.5%
PR3
  serum PR3 activity, % of control group: ~50%
